Key:
Experiment in all cases: biochemical
Type in all cases: biochemical
[1] = biological target: T1, 382 unique human kinases (Homo sapiens, UniProt P21802, K659N); settings: FGFR2 (K659N), 10 uM; for remaining activity at 10 µM: read-out: % Enzyme Activity (relative to DMSO controls)
T1 construct: purchased Reaction Biology (HotSpot contract assay)

[2] = biological target: T2, 382 unique human kinases (Homo sapiens, UniProt P08581, T1173I); settings: c-MET (T1173I), compound at 10 uM, duplicate values; for remaining activity at 10 µM: read-out: % Enzyme Activity (relative to DMSO controls)
T2 construct: purchased Reaction Biology (HotSpot contract assay)

[3] = biological target: T3, 382 unique human kinases (Homo sapiens, UniProt O00311); settings: kinase CDC7/DBF4, compound 10 uM; for remaining activity at 10 µM: read-out: % Enzyme Activity (relative to DMSO controls)
T3 construct: purchased Reaction Biology (HotSpot contract assay)
T3 sequence (O00311 whole entry): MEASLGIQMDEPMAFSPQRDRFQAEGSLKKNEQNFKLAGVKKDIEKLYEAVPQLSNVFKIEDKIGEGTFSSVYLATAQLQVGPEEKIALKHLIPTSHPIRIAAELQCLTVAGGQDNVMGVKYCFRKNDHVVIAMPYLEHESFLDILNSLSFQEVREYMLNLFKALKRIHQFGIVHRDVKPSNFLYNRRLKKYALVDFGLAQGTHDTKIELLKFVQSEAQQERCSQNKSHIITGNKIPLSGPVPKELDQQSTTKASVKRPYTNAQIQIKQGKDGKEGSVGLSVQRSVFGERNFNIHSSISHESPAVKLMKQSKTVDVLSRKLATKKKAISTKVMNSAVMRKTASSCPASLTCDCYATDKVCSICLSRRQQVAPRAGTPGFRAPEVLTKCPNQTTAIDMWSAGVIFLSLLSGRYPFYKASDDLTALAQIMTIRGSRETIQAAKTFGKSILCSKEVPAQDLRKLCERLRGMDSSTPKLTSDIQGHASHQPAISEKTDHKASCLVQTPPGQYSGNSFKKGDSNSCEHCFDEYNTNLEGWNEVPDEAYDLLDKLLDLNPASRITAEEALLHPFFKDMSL

[4] = biological target: T4, 382 unique human kinases (Homo sapiens, UniProt Q05397); settings: kinase FAK/PTK2, compound 10 uM; for remaining activity at 10 µM: read-out: % Enzyme Activity (relative to DMSO controls)
T4 construct: purchased Reaction Biology (HotSpot contract assay)
T4 sequence (Q05397 whole entry): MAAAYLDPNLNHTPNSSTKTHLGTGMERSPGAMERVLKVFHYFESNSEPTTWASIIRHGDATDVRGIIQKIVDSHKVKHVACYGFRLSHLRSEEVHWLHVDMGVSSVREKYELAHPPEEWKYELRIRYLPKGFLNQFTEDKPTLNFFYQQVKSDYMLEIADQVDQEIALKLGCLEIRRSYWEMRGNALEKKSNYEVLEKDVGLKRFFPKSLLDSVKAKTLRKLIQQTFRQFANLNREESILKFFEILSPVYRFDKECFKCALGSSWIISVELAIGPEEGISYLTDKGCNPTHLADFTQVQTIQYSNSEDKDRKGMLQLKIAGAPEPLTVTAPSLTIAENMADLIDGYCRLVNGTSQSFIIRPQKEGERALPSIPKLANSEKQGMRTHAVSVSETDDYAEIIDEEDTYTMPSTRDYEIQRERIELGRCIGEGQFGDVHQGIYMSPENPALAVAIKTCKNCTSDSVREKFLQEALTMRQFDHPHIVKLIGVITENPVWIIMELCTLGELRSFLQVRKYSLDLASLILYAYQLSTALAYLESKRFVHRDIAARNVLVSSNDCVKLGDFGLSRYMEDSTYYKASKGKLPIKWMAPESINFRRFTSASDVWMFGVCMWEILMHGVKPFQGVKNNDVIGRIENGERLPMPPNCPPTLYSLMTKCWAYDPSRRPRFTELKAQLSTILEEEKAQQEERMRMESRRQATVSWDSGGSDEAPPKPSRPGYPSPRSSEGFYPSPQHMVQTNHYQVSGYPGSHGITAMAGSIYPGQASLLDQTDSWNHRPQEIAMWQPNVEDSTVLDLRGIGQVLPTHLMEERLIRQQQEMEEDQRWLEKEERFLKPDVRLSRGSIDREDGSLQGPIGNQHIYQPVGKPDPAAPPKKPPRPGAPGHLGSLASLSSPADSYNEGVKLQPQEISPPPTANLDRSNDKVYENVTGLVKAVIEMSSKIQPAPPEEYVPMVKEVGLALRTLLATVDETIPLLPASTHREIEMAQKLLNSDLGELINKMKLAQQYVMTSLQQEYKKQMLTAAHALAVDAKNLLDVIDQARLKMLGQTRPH

[5] = biological target: T5, 382 unique human kinases (Homo sapiens, UniProt P08581, Y1235D); settings: c-MET (Y1235D), 10 uM; for remaining activity at 10 µM: read-out: % Enzyme Activity (relative to DMSO controls)
T5 construct: purchased Reaction Biology (HotSpot contract assay)

[6] = biological target: T6, 382 unique human kinases (Homo sapiens, UniProt Q9NYY3); settings: kinase PLK2, compound 10 uM; for remaining activity at 10 µM: read-out: % Enzyme Activity (relative to DMSO controls)
T6 construct: purchased Reaction Biology (HotSpot contract assay)
T6 sequence (Q9NYY3 whole entry): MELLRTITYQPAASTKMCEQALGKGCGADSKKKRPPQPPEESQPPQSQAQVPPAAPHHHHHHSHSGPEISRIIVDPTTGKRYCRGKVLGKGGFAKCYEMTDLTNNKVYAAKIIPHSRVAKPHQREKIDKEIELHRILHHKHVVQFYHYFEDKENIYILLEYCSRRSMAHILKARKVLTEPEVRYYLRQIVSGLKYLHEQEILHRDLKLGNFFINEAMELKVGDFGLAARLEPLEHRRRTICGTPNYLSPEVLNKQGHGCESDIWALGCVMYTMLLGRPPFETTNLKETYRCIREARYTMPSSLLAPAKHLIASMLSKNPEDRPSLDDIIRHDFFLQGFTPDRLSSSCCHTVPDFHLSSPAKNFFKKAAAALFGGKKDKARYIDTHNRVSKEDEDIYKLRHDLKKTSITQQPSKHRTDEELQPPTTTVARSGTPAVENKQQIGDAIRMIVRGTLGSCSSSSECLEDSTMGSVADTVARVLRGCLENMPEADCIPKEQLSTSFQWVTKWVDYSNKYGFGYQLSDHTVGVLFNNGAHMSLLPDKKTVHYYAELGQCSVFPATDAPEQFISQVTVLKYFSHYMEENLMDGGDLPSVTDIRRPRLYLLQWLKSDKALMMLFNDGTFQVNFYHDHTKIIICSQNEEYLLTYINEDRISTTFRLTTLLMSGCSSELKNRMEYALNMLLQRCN

[7] = biological target: T7, 382 unique human kinases (Homo sapiens, UniProt Q9H3Y6); settings: SRMS, compound at 10 uM, duplicate values; for remaining activity at 10 µM: read-out: % Enzyme Activity (relative to DMSO controls)
T7 construct: purchased Reaction Biology (HotSpot contract assay)
T7 sequence (Q9H3Y6 whole entry): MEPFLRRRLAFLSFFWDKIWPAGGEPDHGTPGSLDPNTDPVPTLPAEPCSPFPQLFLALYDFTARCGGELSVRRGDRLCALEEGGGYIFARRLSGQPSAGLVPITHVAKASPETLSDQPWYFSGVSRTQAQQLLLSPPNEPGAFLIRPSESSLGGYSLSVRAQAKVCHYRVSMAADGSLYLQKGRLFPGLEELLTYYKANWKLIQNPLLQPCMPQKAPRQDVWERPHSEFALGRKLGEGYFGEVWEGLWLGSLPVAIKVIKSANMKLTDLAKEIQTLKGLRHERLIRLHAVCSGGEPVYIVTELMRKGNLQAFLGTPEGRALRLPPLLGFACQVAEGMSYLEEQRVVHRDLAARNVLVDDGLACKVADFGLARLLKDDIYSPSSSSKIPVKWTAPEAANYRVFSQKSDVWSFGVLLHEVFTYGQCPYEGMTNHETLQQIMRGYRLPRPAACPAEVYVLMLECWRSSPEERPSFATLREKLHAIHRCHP

[8] = biological target: T8, 382 unique human kinases (Homo sapiens, UniProt P30530); settings: kinase AXL, compound 10 uM; for remaining activity at 10 µM: read-out: % Enzyme Activity (relative to DMSO controls)
T8 construct: purchased Reaction Biology (HotSpot contract assay)
T8 sequence (P30530 26-894): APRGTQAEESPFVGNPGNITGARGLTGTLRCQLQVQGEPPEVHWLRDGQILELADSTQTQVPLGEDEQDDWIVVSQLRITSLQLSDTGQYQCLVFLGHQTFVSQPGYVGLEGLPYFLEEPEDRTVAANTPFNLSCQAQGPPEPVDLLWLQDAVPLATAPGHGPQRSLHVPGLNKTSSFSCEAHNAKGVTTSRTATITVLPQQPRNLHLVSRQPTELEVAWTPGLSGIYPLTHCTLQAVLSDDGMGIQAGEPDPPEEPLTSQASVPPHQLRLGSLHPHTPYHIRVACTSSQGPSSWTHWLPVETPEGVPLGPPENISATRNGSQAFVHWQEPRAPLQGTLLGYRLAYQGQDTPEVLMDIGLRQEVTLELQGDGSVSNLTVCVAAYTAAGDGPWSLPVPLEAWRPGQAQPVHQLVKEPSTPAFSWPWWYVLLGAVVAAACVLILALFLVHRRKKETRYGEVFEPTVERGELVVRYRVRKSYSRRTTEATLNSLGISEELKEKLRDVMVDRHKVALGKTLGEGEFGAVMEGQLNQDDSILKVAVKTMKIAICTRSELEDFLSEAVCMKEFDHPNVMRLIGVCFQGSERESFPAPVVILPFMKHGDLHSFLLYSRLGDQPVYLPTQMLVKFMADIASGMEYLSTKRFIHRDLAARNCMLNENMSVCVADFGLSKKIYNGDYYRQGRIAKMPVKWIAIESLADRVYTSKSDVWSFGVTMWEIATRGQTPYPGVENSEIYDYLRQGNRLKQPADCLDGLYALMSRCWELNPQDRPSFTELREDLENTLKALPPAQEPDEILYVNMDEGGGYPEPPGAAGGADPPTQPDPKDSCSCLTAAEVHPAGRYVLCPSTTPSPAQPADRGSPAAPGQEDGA

[9] = biological target: T9, 382 unique human kinases (Homo sapiens, UniProt Q9Y6M4); settings: kinase CK1g3, compound 10 uM; for remaining activity at 10 µM: read-out: % Enzyme Activity (relative to DMSO controls)
T9 construct: purchased Reaction Biology (HotSpot contract assay)
T9 sequence (Q9Y6M4 whole entry): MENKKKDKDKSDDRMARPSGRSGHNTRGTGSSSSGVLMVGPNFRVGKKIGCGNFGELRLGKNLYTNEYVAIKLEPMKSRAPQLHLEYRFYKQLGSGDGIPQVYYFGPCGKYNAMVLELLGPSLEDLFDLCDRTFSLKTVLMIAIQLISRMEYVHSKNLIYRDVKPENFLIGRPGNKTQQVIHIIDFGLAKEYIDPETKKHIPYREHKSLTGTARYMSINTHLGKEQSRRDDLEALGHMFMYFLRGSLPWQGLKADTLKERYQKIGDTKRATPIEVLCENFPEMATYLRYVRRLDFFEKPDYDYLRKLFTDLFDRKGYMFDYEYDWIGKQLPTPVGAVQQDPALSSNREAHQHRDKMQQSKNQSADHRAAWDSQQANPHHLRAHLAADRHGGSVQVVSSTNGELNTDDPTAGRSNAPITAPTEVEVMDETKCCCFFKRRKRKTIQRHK

[10] = biological target: T10, 382 unique human kinases (Homo sapiens, UniProt P11362, V561M); settings: FGFR1 (V561M), 10 uM; for remaining activity at 10 µM: read-out: % Enzyme Activity (relative to DMSO controls)
T10 construct: purchased Reaction Biology (HotSpot contract assay)

[11] = biological target: T11, 382 unique human kinases (Homo sapiens, UniProt P07949, R749T); settings: RET (R749T), 10 uM; for remaining activity at 10 µM: read-out: % Enzyme Activity (relative to DMSO controls)
T11 construct: purchased Reaction Biology (HotSpot contract assay)

[12] = biological target: T12, 382 unique human kinases (Homo sapiens, UniProt P00533, G719D); settings: EGFR (G719D), 10 uM; for remaining activity at 10 µM: read-out: % Enzyme Activity (relative to DMSO controls)
T12 construct: purchased Reaction Biology (HotSpot contract assay)

[13] = biological target: T13, 382 unique human kinases (Homo sapiens, UniProt P05771); settings: PKCb1, 10 uM; for remaining activity at 10 µM: read-out: % Enzyme Activity (relative to DMSO controls)
T13 construct: purchased Reaction Biology (HotSpot contract assay)
T13 sequence (P05771 whole entry): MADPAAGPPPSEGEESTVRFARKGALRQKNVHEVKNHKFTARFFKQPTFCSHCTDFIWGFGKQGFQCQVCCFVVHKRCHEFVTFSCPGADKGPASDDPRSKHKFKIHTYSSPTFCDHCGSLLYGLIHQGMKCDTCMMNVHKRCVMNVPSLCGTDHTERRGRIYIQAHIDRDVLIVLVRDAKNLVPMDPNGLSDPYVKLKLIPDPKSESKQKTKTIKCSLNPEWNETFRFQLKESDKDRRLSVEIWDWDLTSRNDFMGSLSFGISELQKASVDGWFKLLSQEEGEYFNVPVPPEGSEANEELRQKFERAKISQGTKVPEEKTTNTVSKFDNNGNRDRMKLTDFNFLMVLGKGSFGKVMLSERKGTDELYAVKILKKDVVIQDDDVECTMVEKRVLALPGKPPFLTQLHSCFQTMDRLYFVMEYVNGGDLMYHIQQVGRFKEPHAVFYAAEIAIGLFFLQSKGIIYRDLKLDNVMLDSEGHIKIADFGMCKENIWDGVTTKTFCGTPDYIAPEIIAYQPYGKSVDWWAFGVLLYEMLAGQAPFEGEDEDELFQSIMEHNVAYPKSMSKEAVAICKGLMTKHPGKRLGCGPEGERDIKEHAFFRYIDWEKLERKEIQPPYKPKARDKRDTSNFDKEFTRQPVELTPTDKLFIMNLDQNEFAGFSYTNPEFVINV

[14] = biological target: T14, 382 unique human kinases (Homo sapiens, UniProt P78527); settings: DNA-PK, 10 uM; for remaining activity at 10 µM: read-out: % Enzyme Activity (relative to DMSO controls)
T14 construct: purchased Reaction Biology (HotSpot contract assay)

T1 sequence (P21802 22-821 K659N): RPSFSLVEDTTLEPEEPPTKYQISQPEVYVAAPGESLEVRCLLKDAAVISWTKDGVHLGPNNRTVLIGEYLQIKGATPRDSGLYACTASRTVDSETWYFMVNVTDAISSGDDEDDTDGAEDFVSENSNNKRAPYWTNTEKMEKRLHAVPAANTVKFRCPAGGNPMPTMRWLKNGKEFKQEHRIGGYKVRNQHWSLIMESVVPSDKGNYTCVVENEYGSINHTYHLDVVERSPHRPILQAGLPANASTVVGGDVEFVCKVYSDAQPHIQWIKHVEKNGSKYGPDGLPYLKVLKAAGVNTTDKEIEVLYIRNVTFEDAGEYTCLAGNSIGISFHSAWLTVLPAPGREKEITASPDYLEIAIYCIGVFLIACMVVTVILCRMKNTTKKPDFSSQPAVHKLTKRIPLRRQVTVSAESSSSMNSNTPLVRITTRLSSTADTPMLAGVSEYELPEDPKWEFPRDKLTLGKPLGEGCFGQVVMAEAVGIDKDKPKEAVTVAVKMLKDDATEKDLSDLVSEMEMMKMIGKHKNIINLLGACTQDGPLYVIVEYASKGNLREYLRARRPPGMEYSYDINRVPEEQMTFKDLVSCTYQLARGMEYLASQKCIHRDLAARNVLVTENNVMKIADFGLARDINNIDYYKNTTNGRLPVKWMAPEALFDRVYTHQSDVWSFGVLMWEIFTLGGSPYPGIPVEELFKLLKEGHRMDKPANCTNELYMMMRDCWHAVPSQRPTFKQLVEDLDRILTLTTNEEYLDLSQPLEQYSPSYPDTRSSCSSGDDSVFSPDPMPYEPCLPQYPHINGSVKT

Row | SMILES | remaining activity at 10 µM [1] [%] | remaining activity at 10 µM [2] [%] | remaining activity at 10 µM [3] [%] | remaining activity at 10 µM [4] [%] | remaining activity at 10 µM [5] [%] | remaining activity at 10 µM [6] [%] | remaining activity at 10 µM [7] [%] | remaining activity at 10 µM [8] [%] | remaining activity at 10 µM [9] [%] | remaining activity at 10 µM [10] [%] | remaining activity at 10 µM [11] [%] | remaining activity at 10 µM [12] [%] | remaining activity at 10 µM [13] [%] | remaining activity at 10 µM [14] [%] | also measured
1 | CC(C)c1cc(-c2n[nH]c(=O)n2-c2ccc3c(ccn3C)c2)c(O)cc1O [Ganetespib (STA9090)] | 70.6 | 102 | 85.9 | 91.3 | 102 | 86.1 | 109 | 84 | 82 | – | – | – | – | – | –
2 | CC(C)c1cc(-c2n[nH]c(=O)n2-c2ccc3c(ccn3C)c2)c(O)cc1O [Ganetespib] | – | – | – | – | – | – | – | – | – | 97.7 | 106 | 104 | 109 | 97.8 | –
3 | CCNC(=O)c1noc(-c2cc(C(C)C)c(O)cc2O)c1-c1ccc(CN2CCOCC2)cc1 [Luminespib (AUY-922)] | 102 | 118 | 107 | 98 | 73.3 | 106 | 111 | 98.9 | 99.7 | – | – | – | – | – | % Enzyme Activity (relative to DMSO controls) [1]: 101.12%; % Enzyme Activity (relative to DMSO controls) [2]: 114.35%; % Enzyme Activity (relative to DMSO controls) [3]: 105.45%; % Enzyme Activity (relative to DMSO controls) [4]: 96.62%; % Enzyme Activity (relative to DMSO controls) [5]: 71.05%; % Enzyme Activity (relative to DMSO controls) [6]: 105.08%; % Enzyme Activity (relative to DMSO controls) [7]: 110.03%; % Enzyme Activity (relative to DMSO controls) [8]: 97.82%; % Enzyme Activity (relative to DMSO controls) [9]: 98.54%
4 | CCNC(=O)c1noc(-c2cc(C(C)C)c(O)cc2O)c1-c1ccc(CN2CCOCC2)cc1 [Luminespib] | – | – | – | – | – | – | – | – | – | 103 | 98.4 | 99 | 93.8 | 91.6 | % Enzyme Activity (relative to DMSO controls) [10]: 101.68%; % Enzyme Activity (relative to DMSO controls) [11]: 97.79%; % Enzyme Activity (relative to DMSO controls) [12]: 97.19%; % Enzyme Activity (relative to DMSO controls) [13]: 93.07%; % Enzyme Activity (relative to DMSO controls) [14]: 91.21%
